Experimental data reported in the NIST ThermoML archive (doi:10.1016/j.jct.2013.03.020).
Several values for one entry are separate records, joined by “and”; a condition that tells them apart may be missing. Equal entries are not always repeated. Numbers after ± are expanded uncertainties.

Conditions: Liquid, Closed cell (Static) method

CN(C)CCO [2-(N,N-dimethylamino)ethanol]
Conditions	vapor or sublimation pressure
273.15 K	0.142 ± 0.004 kPa
273.86 K	0.149 ± 0.0036 kPa
282.97 K	0.2938 ± 0.0067 kPa and 0.2945 ± 0.0067 kPa
283.15 K	0.2979 ± 0.0068 kPa
292.89 K	0.5824 ± 0.013 kPa
292.91 K	0.5823 ± 0.013 kPa and 0.5822 ± 0.013 kPa
293.15 K	0.59 ± 0.013 kPa
302.89 K	1.095 ± 0.024 kPa and 1.096 ± 0.024 kPa
303.15 K	1.11 ± 0.024 kPa
312.86 K	1.963 ± 0.041 kPa
313.15 K	1.993 ± 0.041 kPa
323.03 K	3.392 ± 0.07 kPa
323.15 K	3.435 ± 0.071 kPa
333.06 K	5.626 ± 0.11 kPa
333.15 K	5.705 ± 0.12 kPa
343.05 K	9.047 ± 0.19 kPa
343.15 K	9.165 ± 0.19 kPa
353.04 K	14.45 ± 0.3 kPa
353.15 K	14.29 ± 0.29 kPa
363.1 K	21.59 ± 0.43 kPa
363.15 K	21.66 ± 0.44 kPa

CCN1CCOCC1 [4-ethylmorpholine]
Conditions	vapor or sublimation pressure
283.15 K	0.5816 ± 0.013 kPa
283.98 K	0.6293 ± 0.014 kPa
293.15 K	1.083 ± 0.024 kPa
293.93 K	1.142 ± 0.025 kPa
303.15 K	1.918 ± 0.04 kPa
303.86 K	1.985 ± 0.041 kPa and 1.989 ± 0.041 kPa
313.15 K	3.253 ± 0.067 kPa
323.15 K	5.304 ± 0.11 kPa
323.78 K	5.303 ± 0.11 kPa
333.15 K	8.353 ± 0.17 kPa
333.91 K	8.702 ± 0.18 kPa
343.15 K	12.75 ± 0.26 kPa
343.88 K	13.07 ± 0.26 kPa
353.15 K	18.92 ± 0.38 kPa
353.9 K	18.88 ± 0.38 kPa
363.15 K	27.37 ± 0.56 kPa
363.86 K	28.78 ± 0.58 kPa

CC(C)N(C)C [N,N-dimethylisopropylamine]
Conditions	vapor or sublimation pressure
273.15 K	6.65 ± 0.14 kPa
274.58 K	7.183 ± 0.15 kPa and 7.185 ± 0.15 kPa and 7.197 ± 0.15 kPa
283.15 K	11.11 ± 0.22 kPa
283.86 K	11.39 ± 0.23 kPa
293.15 K	17.77 ± 0.36 kPa
293.81 K	18.3 ± 0.37 kPa and 18.39 ± 0.37 kPa
303.15 K	27.37 ± 0.55 kPa
303.82 K	28.18 ± 0.57 kPa
313.15 K	40.76 ± 0.82 kPa
313.79 K	41.76 ± 0.84 kPa and 41.79 ± 0.84 kPa and 41.8 ± 0.84 kPa
323.15 K	58.9 ± 1.2 kPa
324.02 K	60.66 ± 1.2 kPa and 60.72 ± 1.2 kPa
333.15 K	82.89 ± 1.7 kPa
334.05 K	85.36 ± 1.7 kPa [middle of 4 runs]

O [water]
Conditions	vapor or sublimation pressure
273.15 K	0.5798 ± 0.013 kPa
283.15 K	1.183 ± 0.026 kPa
293.15 K	2.277 ± 0.047 kPa
303.15 K	4.165 ± 0.085 kPa
313.15 K	7.284 ± 0.15 kPa
323.15 K	12.23 ± 0.25 kPa
333.15 K	19.82 ± 0.4 kPa
343.15 K	31.09 ± 0.63 kPa and 30.82 ± 0.62 kPa
353.15 K	47.34 ± 0.95 kPa
363.15 K	70.22 ± 1.4 kPa
